Several values for one entry are separate records, joined by “and”; a condition that tells them apart may be missing. Identical values can stand only once.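 Five compound concentrations were applied to cells in 96-well plates for 48 hours; endpoints were derived by simple linear interpolation of the resulting dose-response curve. GI50 marks 50% less growth. TGI: total growth inhibition.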
Tests used:
Assay in all cases: DTP human tumour cell line panel, 48 h
SNB-19 CNS = tested on: SNB-19 CNS
IGROV1 ovarian = tested on: IGROV1 ovarian
HCT-15 colon = tested on: HCT-15 colon
SF-295 CNS = tested on: SF-295 CNS
NCI-H23 lung = tested on: NCI-H23 lung
SW-620 colon = tested on: SW-620 colon
OVCAR-4 ovarian = tested on: OVCAR-4 ovarian
OVCAR-3 ovarian = tested on: OVCAR-3 ovarian
RPMI-8226 leukemia = tested on: RPMI-8226 leukemia
BT-549 breast = tested on: BT-549 breast

CCOC(=O)c1oc2c(OC)ccc3c2c1CCC3
TGI (SNB-19 CNS): > 100 µM | TGI (IGROV1 ovarian): > 100 µM | TGI (HCT-15 colon): > 100 µM | TGI (SF-295 CNS): > 100 µM | TGI (NCI-H23 lung): > 100 µM | TGI (SW-620 colon): > 100 µM | TGI (OVCAR-4 ovarian): > 100 µM | TGI (OVCAR-3 ovarian): > 100 µM | TGI (RPMI-8226 leukemia): > 100 µM

CC1CC(C[N+](=O)[O-])CC2(C1)OCCO2 (stereo not given)
TGI (SNB-19 CNS): > 100 µM | TGI (IGROV1 ovarian): > 100 µM | TGI (HCT-15 colon): > 100 µM | TGI (SW-620 colon): > 100 µM | TGI (OVCAR-4 ovarian): > 100 µM | TGI (OVCAR-3 ovarian): > 100 µM | TGI (RPMI-8226 leukemia): > 100 µM

Cc1cc2c(cc1Cl)SC(N(c1ccccc1Cl)S(=O)(=O)c1ccc(Br)s1)=NS2(=O)=O
GI50 (SNB-19 CNS): 19.9 µM | TGI (SNB-19 CNS): 68.5 µM | GI50 (IGROV1 ovarian): 19.8 µM | TGI (IGROV1 ovarian): 89.8 µM | GI50 (HCT-15 colon): 15.5 µM | TGI (HCT-15 colon): 32.7 µM | GI50 (SF-295 CNS): 30.7 µM | TGI (SF-295 CNS): > 100 µM | GI50 (NCI-H23 lung): 19.9 µM | TGI (NCI-H23 lung): 56.4 µM | GI50 (SW-620 colon): 14.9 µM | TGI (SW-620 colon): 30.4 µM | GI50 (OVCAR-4 ovarian): 18.1 µM | TGI (OVCAR-4 ovarian): 76.8 µM | GI50 (OVCAR-3 ovarian): 18.2 µM | TGI (OVCAR-3 ovarian): 60.1 µM | GI50 (RPMI-8226 leukemia): 24.8 µM | TGI (RPMI-8226 leukemia): 82.3 µM

CCCCC(C(=O)C(=O)Nc1ccc(C)cc1C)C(=O)C(C)C (stereo not given)
TGI (SNB-19 CNS): > 100 µM | TGI (IGROV1 ovarian): > 100 µM | TGI (HCT-15 colon): > 100 µM | TGI (SF-295 CNS): > 100 µM | TGI (NCI-H23 lung): > 100 µM | TGI (SW-620 colon): > 100 µM | TGI (OVCAR-4 ovarian): > 100 µM | TGI (OVCAR-3 ovarian): > 100 µM | TGI (RPMI-8226 leukemia): > 100 µM

CC(=O)OCCOCn1c2ccccc2c2c3c(c4c5ccccc5n(COCCOC(C)=O)c4c21)C(=O)N(Cc1ccccc1)C3=O
TGI (SNB-19 CNS): > 100 µM | TGI (IGROV1 ovarian): > 100 µM | TGI (HCT-15 colon): > 100 µM | TGI (NCI-H23 lung): > 100 µM | TGI (SW-620 colon): > 100 µM | TGI (OVCAR-4 ovarian): > 100 µM | TGI (RPMI-8226 leukemia): > 100 µM

OCC#CCOCC#Cc1ccccc1C#CCOCC#CCO
GI50 (IGROV1 ovarian): > 100 µM | TGI (IGROV1 ovarian): > 100 µM | GI50 (HCT-15 colon): 20.9 µM | TGI (HCT-15 colon): > 100 µM | GI50 (SF-295 CNS): > 100 µM | TGI (SF-295 CNS): > 100 µM | GI50 (NCI-H23 lung): 36 µM | TGI (NCI-H23 lung): > 100 µM | GI50 (BT-549 breast): 34.2 µM | TGI (BT-549 breast): 93.2 µM | GI50 (SW-620 colon): 58.9 µM | TGI (SW-620 colon): > 100 µM | GI50 (OVCAR-3 ovarian): 38.1 µM | TGI (OVCAR-3 ovarian): > 100 µM | GI50 (RPMI-8226 leukemia): 13.7 µM | TGI (RPMI-8226 leukemia): 35.3 µM

COc1cc(/C=C/C(=O)c2cccc3ccccc23)cc(OC)c1OC
TGI (SNB-19 CNS): 27.8 µM | TGI (IGROV1 ovarian): 43.4 µM | TGI (SF-295 CNS): 22.2 µM | TGI (NCI-H23 lung): 18.4 µM | TGI (SW-620 colon): 7.32 µM | TGI (OVCAR-4 ovarian): 19.1 µM | TGI (OVCAR-3 ovarian): 25.7 µM

O=C1C=CC2(CCCCCCC2=O)CC1 (stereo not given)
TGI (SNB-19 CNS): > 100 µM | TGI (IGROV1 ovarian): > 100 µM | TGI (HCT-15 colon): > 100 µM | TGI (SF-295 CNS): > 100 µM | TGI (SW-620 colon): > 100 µM | TGI (OVCAR-4 ovarian): > 100 µM | TGI (OVCAR-3 ovarian): > 100 µM | TGI (RPMI-8226 leukemia): > 100 µM

CC(=O)OC1C[C@H]2C(OC(=O)c3ccccc3)C3C4(OC(C)=O)COC4C[C@H](OC(C)=O)[C@@]3(C)C(OC(C)=O)[C@H](OC(C)=O)C(=C1C)C2(C)C (stereo not given in full)
TGI (SNB-19 CNS): > 100 µM | TGI (IGROV1 ovarian): > 100 µM | TGI (HCT-15 colon): > 100 µM | TGI (SF-295 CNS): > 100 µM | TGI (NCI-H23 lung): > 100 µM | TGI (SW-620 colon): > 100 µM | TGI (OVCAR-4 ovarian): > 100 µM | TGI (OVCAR-3 ovarian): > 100 µM | TGI (RPMI-8226 leukemia): > 100 µM

O/N=C1/CCCC/C1=C/C=C/c1ccccc1
TGI (SNB-19 CNS): > 100 µM | TGI (IGROV1 ovarian): 36.8 µM | TGI (HCT-15 colon): 36.2 µM | TGI (SF-295 CNS): 69.8 µM | TGI (NCI-H23 lung): 60.5 µM | TGI (SW-620 colon): 77.1 µM | TGI (OVCAR-4 ovarian): > 100 µM | TGI (OVCAR-3 ovarian): 35.2 µM | TGI (RPMI-8226 leukemia): 71.7 µM

O=C(NCCCCCCCCCCCCNC(=O)c1cnc2ccccc2n1)c1cnc2ccccc2n1
TGI (SNB-19 CNS): 47.7 µM | TGI (IGROV1 ovarian): > 100 µM | TGI (HCT-15 colon): > 100 µM | TGI (SF-295 CNS): > 100 µM | TGI (SW-620 colon): > 100 µM | TGI (OVCAR-4 ovarian): 29.8 µM | TGI (OVCAR-3 ovarian): > 100 µM | TGI (RPMI-8226 leukemia): > 100 µM

CC(=O)Nc1ccccc1-c1nc2ccccc2nc1-c1ccccc1
TGI (SNB-19 CNS): > 100 µM | TGI (IGROV1 ovarian): > 100 µM | TGI (HCT-15 colon): > 100 µM | TGI (SF-295 CNS): > 100 µM | TGI (NCI-H23 lung): > 100 µM | TGI (SW-620 colon): > 100 µM | TGI (OVCAR-4 ovarian): > 100 µM | TGI (OVCAR-3 ovarian): > 100 µM | TGI (RPMI-8226 leukemia): > 100 µM

O=CC(OC(=O)c1ccccc1)C(OC(=O)c1ccccc1)C(COC(c1ccccc1)(c1ccccc1)c1ccccc1)OC(=O)c1ccccc1 (stereo not given)
GI50 (SNB-19 CNS): 15.3 µM | TGI (SNB-19 CNS): 28.6 µM | GI50 (IGROV1 ovarian): 12.4 µM | TGI (IGROV1 ovarian): 37.7 µM | GI50 (HCT-15 colon): 16.6 µM | TGI (HCT-15 colon): 43.1 µM | GI50 (SF-295 CNS): 23.8 µM | TGI (SF-295 CNS): 73.5 µM | GI50 (NCI-H23 lung): 15.4 µM | TGI (NCI-H23 lung): 34.6 µM | GI50 (BT-549 breast): 23.4 µM | TGI (BT-549 breast): > 100 µM | GI50 (SW-620 colon): 5.13 µM | TGI (SW-620 colon): 20.7 µM | GI50 (OVCAR-4 ovarian): 17.5 µM | TGI (OVCAR-4 ovarian): 47.1 µM | GI50 (OVCAR-3 ovarian): 11 µM | TGI (OVCAR-3 ovarian): 24.1 µM

O=C1c2c(O)cccc2C(C(=O)CCCCCC(=O)C2c3cccc(O)c3C(=O)c3c(O)cccc32)c2cccc(O)c21
GI50 (SNB-19 CNS): 2.05 µM | TGI (SNB-19 CNS): 3.9 µM and 6.97 µM | GI50 (IGROV1 ovarian): 12.5 µM | TGI (IGROV1 ovarian): 6.13 µM and 28.6 µM | GI50 (HCT-15 colon): 7.25 µM | TGI (HCT-15 colon): 5.44 µM and 14.4 µM | GI50 (SF-295 CNS): 1.48 µM | TGI (SF-295 CNS): 25 µM and 3.74 µM | GI50 (NCI-H23 lung): 3.94 µM | TGI (NCI-H23 lung): 1.88 µM and 12.9 µM | GI50 (SW-620 colon): 5.44 µM | TGI (SW-620 colon): 25 µM and 14.5 µM | GI50 (OVCAR-4 ovarian): 5.17 µM | TGI (OVCAR-4 ovarian): 4.61 µM and 11 µM | GI50 (OVCAR-3 ovarian): 1.73 µM | TGI (OVCAR-3 ovarian): 3.19 µM and 5.98 µM | GI50 (RPMI-8226 leukemia): 1.55 µM | TGI (RPMI-8226 leukemia): 2.1 µM and 4.41 µM

Nc1nc(N)c2c(n1)NC(c1sc(Cl)nc1Cl)CC(c1ccccc1)=N2 (stereo not given)
GI50 (SNB-19 CNS): 5.15 µM | TGI (SNB-19 CNS): 17.8 µM | GI50 (IGROV1 ovarian): 7.08 µM | TGI (IGROV1 ovarian): 23.4 µM | GI50 (HCT-15 colon): 3.05 µM | TGI (HCT-15 colon): 15.2 µM | GI50 (SF-295 CNS): 3.06 µM | TGI (SF-295 CNS): 13.3 µM | GI50 (NCI-H23 lung): 8.23 µM | TGI (NCI-H23 lung): 23.3 µM | GI50 (BT-549 breast): 3.93 µM | TGI (BT-549 breast): 16.1 µM | GI50 (SW-620 colon): 3.42 µM | TGI (SW-620 colon): 13.3 µM | GI50 (OVCAR-3 ovarian): 3.6 µM | TGI (OVCAR-3 ovarian): 13.7 µM | GI50 (RPMI-8226 leukemia): 4.99 µM | TGI (RPMI-8226 leukemia): 31.5 µM

O=S(=O)(C1=CC(S(=O)(=O)c2ccccc2)COC1)c1ccccc1 (stereo not given)
TGI (SNB-19 CNS): > 100 µM | TGI (IGROV1 ovarian): > 100 µM | TGI (HCT-15 colon): > 100 µM | TGI (SF-295 CNS): > 100 µM | TGI (NCI-H23 lung): > 100 µM | TGI (SW-620 colon): > 100 µM | TGI (OVCAR-4 ovarian): > 100 µM | TGI (OVCAR-3 ovarian): > 100 µM | TGI (RPMI-8226 leukemia): > 100 µM

Cc1ccccc1/C=C/c1csnn1
TGI (SNB-19 CNS): > 100 µM | TGI (IGROV1 ovarian): > 100 µM | TGI (HCT-15 colon): > 57.5 µM | TGI (SF-295 CNS): > 100 µM | TGI (NCI-H23 lung): > 100 µM | TGI (SW-620 colon): > 79.9 µM | TGI (OVCAR-4 ovarian): > 100 µM | TGI (OVCAR-3 ovarian): > 100 µM | TGI (RPMI-8226 leukemia): 79.7 µM

COc1ccc(C(c2ccccc2C(=O)O)c2ccc(OC)c3ccccc23)c2ccccc12
TGI (SNB-19 CNS): 25.4 µM | TGI (IGROV1 ovarian): 25.5 µM | TGI (HCT-15 colon): 28.8 µM | TGI (SF-295 CNS): 25.6 µM | TGI (SW-620 colon): 44.4 µM | TGI (OVCAR-4 ovarian): 25.6 µM | TGI (OVCAR-3 ovarian): 26.6 µM | TGI (RPMI-8226 leukemia): 20.8 µM

O=C(CCC(=O)Nc1ccccc1C(F)(F)F)N/N=C1\C(=N\NC(=O)CCC(=O)Nc2ccccc2C(F)(F)F)C(c2ccc3c(c2)OCO3)Oc2ccccc21 (stereo not given)
TGI (SNB-19 CNS): > 100 µM | TGI (IGROV1 ovarian): > 100 µM | TGI (HCT-15 colon): > 100 µM | TGI (SF-295 CNS): > 100 µM | TGI (NCI-H23 lung): > 100 µM | TGI (SW-620 colon): > 100 µM | TGI (OVCAR-4 ovarian): > 85.4 µM | TGI (OVCAR-3 ovarian): > 100 µM | TGI (RPMI-8226 leukemia): > 100 µM

From PubChem BioAssay (NCI)
